In US7879887B2, “α-amino acid derivatives and medicaments containing the same as an active ingredient” (Nissan Chemical Industries, Ltd., priority 2006, dated 2011) one finds IC50 data, which are given here for twelve molecules.

pIC50: −log10 of the molar value.

Assay [1] concerns colon carcinoma cell line SW620. Briefly: Cell proliferation inhibitory activity, SW620. In kind it is cell-based, human. Particulars: Homo sapiens, SW-620, 96 h, cells counted 4 days later with Cell Counting Kit-8. The gist of the method:
(§1)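 Suspended cells were added to test substance solutions at a range of concentrations and cultured for 4 days at 37° C in a 5% CO2 incubator. Viable cell numbers were then determined by CCK-8.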

A further assay deals with T1, Aurora A (Homo sapiens, UniProt O14965).
T1 construct: purchased Upstate Inc. 14-511
T1 sequence (O14965 1-403): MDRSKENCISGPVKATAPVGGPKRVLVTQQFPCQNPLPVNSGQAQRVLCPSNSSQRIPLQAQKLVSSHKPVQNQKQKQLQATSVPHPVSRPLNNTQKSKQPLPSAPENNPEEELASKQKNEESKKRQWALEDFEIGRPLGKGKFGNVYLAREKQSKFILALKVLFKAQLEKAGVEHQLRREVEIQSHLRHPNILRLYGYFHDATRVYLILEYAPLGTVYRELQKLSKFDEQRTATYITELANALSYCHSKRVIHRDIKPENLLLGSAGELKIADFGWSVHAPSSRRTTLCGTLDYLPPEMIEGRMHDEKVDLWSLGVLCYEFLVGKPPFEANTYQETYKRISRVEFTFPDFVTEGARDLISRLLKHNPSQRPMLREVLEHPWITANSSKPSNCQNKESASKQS
Kind of assay: In vitro kinase assay, Aurora A. As to conditions: recombinant protein (Upstate). In kind it is biochemical. The gist of the method: (§2)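 Recombinant human enzymes assayed per supplier protocol. IC50 derived with compound-free wells set as 0% inhibition and compound- and enzyme-free wells as 100% inhibition.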

Assay [2] deals with lung carcinoma cell line NCI-H460. Briefly: Cell proliferation inhibitory activity, NCI-H460. Particulars: Homo sapiens, 96 h, cells counted 4 days later with Cell Counting Kit-8. In kind it is cell-based. The gist of the method:
as §1
Background: Tetrazolium assays rely on reduction of a dye to a coloured formazan, in cell work by metabolically active cells.

In another assay the test system is leukemia cell line KG-1a. Kind of assay: Cell proliferation inhibitory activity, KG-1a. In kind it is cell-based. Particulars: Homo sapiens, 96 h, cells counted 4 days later with Cell Counting Kit-8. Put shortly:
as §1

Assay [3] concerns breast cancer cell line MDA-MB-231. Kind of assay: Cell proliferation inhibitory activity, MDA-MB-231. In kind it is cell-based. Particulars: Homo sapiens, 96 h, cells counted 4 days later with Cell Counting Kit-8. Put shortly:
as §1

Assay [4] concerns prostate cancer cell line DU 145. Kind of assay: Cell proliferation inhibitory activity, DU 145. In kind it is cell-based, human. As to conditions: Homo sapiens, 96 h, cells counted 4 days later with Cell Counting Kit-8. The gist of the method:
as §1

The subject of assay [5] is pancreatic cancer cell line MIAPaCa-2. Briefly: Cell proliferation inhibitory activity, MIAPaCa-2. As to conditions: Homo sapiens, MIA PaCa-2, 96 h; cells counted 4 days later, Cell Counting Kit-8. In kind it is cell-based. The gist of the method:
as §1

Another assay addresses T2, CDK3/Cyclin E complex (Homo sapiens, UniProt Q00526).
T2 construct: purchased Upstate Inc. 14-487
Kind of assay: In vitro kinase assay, CDK3/Cyclin E complex. As to conditions: recombinant protein (Upstate); read-out: CDK3/cyclinE IC50. In kind it is biochemical. The method, then:
Inhibitory activity against Aurora A, CDK1/Cyclin B complex, CDK2/Cyclin E complex and CDK3/Cyclin E complex were measured by in vitro kinase assay using recombinant proteins.

Another assay has as its target T3, CDK1/Cyclin B complex (Homo sapiens, UniProt P06493).
T3 construct: purchased Upstate Inc. 14-450
Kind of assay: In vitro kinase assay, CDK1/Cyclin B complex. In kind it is biochemical. As to conditions: recombinant protein (Upstate). Put shortly: as §2

Assay [6] relates to ovarian cancer cell line IGROV1. Kind of assay: Cell proliferation inhibitory activity, IGROV1. In kind it is cell-based. Particulars: Homo sapiens, IGROV-1, 96 h, cells counted 4 days later with Cell Counting Kit-8. Put shortly:
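Read-out: Cell Counting Kit-8 cell counts taken 4 days after cells in medium were added to graded test-substance concentrations. Incubation was at 37° C under 5% CO2. IC50 values were based on vehicle wells set to 0% inhibition and wells lacking compound and cells set to 100%.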

T2 sequence (Q00526 whole entry): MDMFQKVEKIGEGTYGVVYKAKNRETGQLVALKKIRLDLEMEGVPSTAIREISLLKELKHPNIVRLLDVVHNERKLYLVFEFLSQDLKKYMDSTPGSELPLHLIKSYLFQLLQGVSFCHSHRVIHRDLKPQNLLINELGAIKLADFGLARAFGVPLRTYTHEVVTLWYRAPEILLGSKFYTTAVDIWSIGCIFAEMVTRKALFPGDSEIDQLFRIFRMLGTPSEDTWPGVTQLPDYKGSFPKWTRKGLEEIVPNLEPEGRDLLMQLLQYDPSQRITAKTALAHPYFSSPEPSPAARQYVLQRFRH
T2 sequence (P24864 whole entry partner): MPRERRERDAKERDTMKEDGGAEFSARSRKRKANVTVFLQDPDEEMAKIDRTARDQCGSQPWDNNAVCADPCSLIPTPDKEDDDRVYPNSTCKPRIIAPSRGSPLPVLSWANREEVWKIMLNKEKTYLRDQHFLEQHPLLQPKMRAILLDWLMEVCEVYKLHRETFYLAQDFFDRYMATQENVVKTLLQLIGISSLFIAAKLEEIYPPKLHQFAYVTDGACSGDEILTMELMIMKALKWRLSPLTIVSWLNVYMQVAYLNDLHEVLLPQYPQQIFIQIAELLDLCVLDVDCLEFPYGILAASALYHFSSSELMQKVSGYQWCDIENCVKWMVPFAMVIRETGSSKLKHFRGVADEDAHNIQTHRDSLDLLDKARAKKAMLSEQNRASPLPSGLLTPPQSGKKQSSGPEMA
T3 sequence (P06493 whole entry): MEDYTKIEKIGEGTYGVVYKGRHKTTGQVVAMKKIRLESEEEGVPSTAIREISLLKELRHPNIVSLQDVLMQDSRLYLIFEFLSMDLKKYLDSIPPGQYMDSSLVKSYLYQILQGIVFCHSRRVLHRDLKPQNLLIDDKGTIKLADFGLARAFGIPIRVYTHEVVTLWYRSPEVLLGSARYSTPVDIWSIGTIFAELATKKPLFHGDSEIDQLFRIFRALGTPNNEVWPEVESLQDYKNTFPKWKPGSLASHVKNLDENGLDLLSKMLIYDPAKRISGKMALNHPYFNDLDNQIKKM
T3 sequence (P14635 whole entry partner): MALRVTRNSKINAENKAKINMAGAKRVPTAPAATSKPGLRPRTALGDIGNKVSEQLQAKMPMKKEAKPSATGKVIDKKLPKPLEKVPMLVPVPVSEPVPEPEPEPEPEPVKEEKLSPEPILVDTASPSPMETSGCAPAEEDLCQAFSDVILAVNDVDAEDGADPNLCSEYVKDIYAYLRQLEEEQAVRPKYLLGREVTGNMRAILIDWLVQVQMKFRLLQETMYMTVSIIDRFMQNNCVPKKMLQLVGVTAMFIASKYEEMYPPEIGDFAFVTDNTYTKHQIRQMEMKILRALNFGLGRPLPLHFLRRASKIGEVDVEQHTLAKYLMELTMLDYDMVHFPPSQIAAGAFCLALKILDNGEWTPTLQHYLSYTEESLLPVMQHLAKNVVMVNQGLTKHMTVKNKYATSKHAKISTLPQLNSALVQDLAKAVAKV

Consider `CC(C)(Nc1ccc(Cl)c(C(=O)NC2CC2)c1)C(=O)Nc1nc2c(C(F)(F)F)cc3[nH]ncc3c2s1` [compound 75], for which the pIC50 in assay [1] was 6.30; on Aurora A it was 6.33; in assay [2], 5.70; in the assay with leukemia cell line KG-1a, above 7.00; in assay [3], 5.44; in assay [4], 5.96. Further, the pIC50 was 5.41 in assay [5], 7.39 at CDK3/Cyclin E complex and 6.89 at CDK1/Cyclin B complex.

As to `CCNC(=O)c1cc(NC(C)(C)C(=O)Nc2nc3c(C(F)(F)F)cc4[nH]ncc4c3s2)ccc1Cl` [compound 60], the pIC50 in [1] was 6.52; at Aurora A it was 6.79; in assay [2], 5.82; in the assay with leukemia cell line KG-1a it was 6.52; in assay [3], 5.35; in assay [4], 6.05. The figures for the pIC50 (in [5]; on CDK3/Cyclin E complex; on CDK1/Cyclin B complex) were 5.36, 7.80 and 7.14, respectively.

In the case of `CC(=O)Nc1cc(NC(C)(C)C(=O)Nc2nc3ccc4[nH]ncc4c3s2)ccc1Cl` [compound 128], the pIC50 was 6.05 in assay [1]; 5.46 in assay [6]; 7.41 on Aurora A; 5.96 in assay [2]; above 7.00 in the assay with leukemia cell line KG-1a; 5.34 in assay [3]. The pIC50 in assay [4] was 5.77; in assay [5] it was 5.49; at CDK3/Cyclin E complex it was 7.21.

Turning to `CC(C)(Nc1ccc(Cl)c(C(=O)NCC(N)=O)c1)C(=O)Nc1nc2c(C(F)(F)F)cc3[nH]ncc3c2s1` [compound 85], the pIC50 in [1] is 6.52; in assay [6] it was 5.74; on Aurora A, 7.15; in assay [2], 5.92; in the assay on leukemia cell line KG-1a it was above 7.00; in assay [3], 5.60. Besides, the pIC50 was 5.89 in assay [4], 5.74 in assay [5], 9.22 at CDK3/Cyclin E complex and 8.74 at CDK1/Cyclin B complex.

`O=C(Nc1nc2ccc3[nH]ncc3c2s1)C(CO)Nc1ccc(Cl)cc1` (centres unmarked) [compound 132]: the pIC50 in assay [1] is 6.22; in assay [6] it was 5.85; in assay [2], 5.77; in the assay on leukemia cell line KG-1a it was above 7.00; in assay [3], 5.72; in [4], 5.85. In addition, the pIC50 in assay [5] is 5.43; on CDK3/Cyclin E complex, 7.54; on CDK1/Cyclin B complex, 6.42.

As to `CC(C)(Nc1ccc(Cl)c(C(N)=O)c1)C(=O)Nc1nc2c(C(F)(F)F)cc3[nH]ncc3c2s1` [compound 135], the pIC50 is 6.52 in assay [1]; 5.82 in [6]; 7.40 at Aurora A; 6.05 in [2]; above 7.00 with leukemia cell line KG-1a; 5.80 in [3]. Besides, the pIC50 in assay [4] was 6.30; in assay [5], 5.39; on CDK3/Cyclin E complex it was 7.64; on CDK1/Cyclin B complex, 7.08.

`CCC(=O)Nc1cc(NC2(C(=O)Nc3nc4ccc5[nH]ncc5c4s3)CC2)ccc1F` [compound 121]: the pIC50 was 6.30 in assay [1]; 5.32 in [6]; 6.51 at Aurora A; 5.66 in assay [2]; above 7.00 with leukemia cell line KG-1a; 5.47 in assay [4]. For the same molecule, the pIC50 in [5] was 5.34; at CDK3/Cyclin E complex it was 6.90.

As for `CC(=O)Nc1cc(NC(C)(C)C(=O)Nc2nc3c(C(F)(F)F)cc4[nH]ncc4c3s2)ccc1Cl` [compound 53], the pIC50 in [1] was 5.89; at Aurora A, 6.64; in assay [2], 5.62; in the assay with leukemia cell line KG-1a, 6.52; in assay [3] it was 5.40; in [4], 5.82. The pIC50 in assay [5] was 5.33; at CDK3/Cyclin E complex, 7.35; at CDK1/Cyclin B complex, 6.38.

For `CNC(=O)c1cc(NC(C)(C)C(=O)Nc2nc3c(C(F)(F)F)cc4[nH]ncc4c3s2)ccc1Cl` [compound 55], the pIC50 in assay [1] is 6.52; in assay [6] it was 5.57; at Aurora A, 6.73; in assay [2], 6.10; with leukemia cell line KG-1a, above 7.00; in assay [3] it was 5.49. For the same molecule, the pIC50 in [4] is 6.05; in assay [5] it was 5.39; on CDK3/Cyclin E complex, 7.64; at CDK1/Cyclin B complex, 7.14.

Take `CC(C)(Nc1cccc(S(N)(=O)=O)c1)C(=O)Nc1nc2c(C(F)(F)F)cc3[nH]ncc3c2s1` [compound 82]: the pIC50 in assay [1] was 6.70; in assay [6], 6.05; on Aurora A, 7.85; in assay [2], 6.40; in the assay with leukemia cell line KG-1a, above 7.00; in assay [3], 5.68. Besides, the pIC50 in assay [4] is 6.40; in assay [5], 5.60; at CDK3/Cyclin E complex it was 8.23; on CDK1/Cyclin B complex, 7.70.

Consider `CC(C)(Nc1cccc(O)c1)C(=O)Nc1nc2ccc3[nH]ncc3c2s1` [compound 33], for which the pIC50 in assay [1] is 6.40; in assay [6] it was 5.57; on Aurora A, 7.54; in assay [2] it was 5.44; in the assay with leukemia cell line KG-1a, above 7.00; in assay [3] it was 5.70. Besides, the pIC50 in assay [4] is 5.77; in assay [5], 5.35; on CDK3/Cyclin E complex it was 7.48; at CDK1/Cyclin B complex it was 6.94.

`CC(=O)Nc1cc(NC(C)(C)C(=O)Nc2nc3c(C(F)(F)F)cc4[nH]ncc4c3s2)ccc1F` [compound 81]: the pIC50 in [1] is 6.10; in assay [6] it was 5.62; on Aurora A it was 6.35; in [2] it was 5.89; in the assay on leukemia cell line KG-1a, above 7.00; in [3], 5.38. The pIC50 in assay [4] was 5.96; in assay [5] it was 5.33; at CDK3/Cyclin E complex it was 7.26; on CDK1/Cyclin B complex it was 6.42.
